Laboratory results taken from US20210236445A1, “BACLOFEN AND ACAMPROSATE BASED THERAPY OF ALZHEIMER'S DISEASE IN PATIENTS HAVING LOST RESPONSIVENESS TO ACETYLCHOLINESTERASE INHIBITOR THERAPY” (priority 2018, published 2021).

Key:
[1] = tested on: Aβ25-35-induced spontaneous alternation deficits in mice; assay: Spontaneous alternation performance (Y-maze) in Aβ25-35 ICV-injected mice; assay type: in vivo, Swiss mice; conditions: Example C
[2] = tested on: patient's cognitive function; conditions: cited from earlier work
[3] = tested on: Aβ25-35-induced step-through passive avoidance deficits in mice; assay: Step-through passive avoidance test (STPA) in Aβ25-35 ICV-injected mice; assay type: in vivo, Swiss mice
Experimental: (§1) Male Swiss mice were anesthetized 5 minutes with isoflurane 2.5%. At Day 01, animals were injected intracerebroventricularly (ICV) through a 28-gauge stainless-steel needle, 4 mm long. An injection volume of 3 μl was delivered gradually within 30 s and the needle left in place for an additional 30 s before being removed. […] Homogeneous preparation of the Aβ25-35 peptide were performed according to the AMYLGEN's own procedure.
(§2) All animals received a per os gavage using an inox steel cannula (5 mL/Kg). All the treatments were administered under a volume calculated according to the individual body weight of each mouse (5 mL/Kg). Vehicle and donepezil (1 mg/Kg) administration were done once a day, and the mix Acamprosate/baclofen twice a day (0.2 mg/Kg and 3 mg/Kg, respectively).
(§3) In a first set of experiments (FIG. 1A), the treatment, donepezil (1 mg/Kg), was started 19 days (D20) after icy injection for 21 days (D40) (group 3 and 4). At D30 one group of animals treated with donepezil was administered with acamprosate and baclofen (0.2 mg/Kg and 3 mg/Kg, respectively), in addition of donepezil treatment (group 4).
(§4) In a second set of experiments (FIG. 1B). The treatment, donepezil (1 mg/kg) (Group 5) or the combination acamprosate and baclofen (0.2 mg/Kg and 3 mg/Kg, respectively) (group 7), was started 19 days (D20) after icy injection and maintained for 23 days (D42) in two groups of animals. In a third group of animals (group 6), initially treated with donepezil, treatment with donepezil was stopped at D30 and replaced with administration of acamprosate and baclofen (0.2 mg/Kg and 3 mg/Kg, respectively) until D42.
The guillotine door was initially closed during the training session. Each mouse was placed into the white compartment. After 5 s, the door was raised. […] The retention test was carried out 24 h after training. Each mouse was placed again into the white compartment. After 5 s, the door was raised.
(§5) All animals received a per os gavage using an inox steel cannula. Vehicle or Donepezil (1 mg/kg) were administered at D8 until D17; or at D20 until D30 or at D20 to D40 once a day. All the treatments were administered under a volume calculated according to the individual body weight of each mouse (5 mL/Kg).

[4] = tested on: Aβ25-35-induced spontaneous alternation deficits in mice; assay: Spontaneous alternation performance (Y-maze) in Aβ25-35 ICV-injected mice; assay type: in vivo, Swiss mice; conditions: for Effect on Aβ25-35-induced cognitive impairment, spontaneous alternation (Y-maze), after longer treatment / Effect on Aβ25-35-induced cognitive impairment, spontaneous alternation (Y-maze): Example A; for Effect on Aβ25-35-induced cognitive impairment, spontaneous alternation (Y-maze), after longer treatment: treatment alone from D20, tested D38 or D40; for Effect on Aβ25-35-induced cognitive impairment, spontaneous alternation (Y-maze): treatment alone per os from D20, eleven days, tested D30, donepezil 1 mg/Kg once a day or acamprosate/baclofen 0.2/3 mg/Kg twice a day
Experimental: as §1, §2, §3, §4
(§6) Mice were tested for spontaneous alternation performance in the Y-maze, an index of spatial working memory. The Y-maze was designed according to Itoh et al.,1993 (57) and Hiramatsu and Inoue, 1999 (58), and is made of grey polyvinylchloride. Each arm is 40 cm long, 13 cm high, 3 cm wide at the bottom, 10 cm wide at the top, and converging at an equal angle. Each mouse was placed at the end of one arm and allowed to move freely through the maze during an 8 min session. The series of arm entries, including possible returns into the same arm, were checked visually by an experimenter blind to treatment. An alternation is defined as entries into all three arms on consecutive occasions. The number of maximum alternations were therefore the total number of arm entries minus two and the percentage of alternation as calculated as (actual alternations / maximum alternations)×100. Calculated parameters consisted in the percentage of alternation (memory index) and the total number of arm entries (exploration index) (52-56).
In the first set of experiments (FIG. 1A), animals were tested after the beginning of the treatment at D30 and D38. In the second set of experiments (FIG. 1B), animals were tested after the beginning of the treatment, at D30 and D40.
as §5
as §6, with “8min” for “8 min”, “occasions.” for “occasions. The number of maximum alternations were therefore the total number of arm entries minus two and the percentage of alternation as calculated as (actual alternations / maximum alternations)×100. Calculated parameters consisted in the percentage of alternation (memory index) and the total number of arm entries (exploration index) (52-56).”

Row | Compound | % of alternation in Y-maze at D42 ([1]; 1 mg/Kg from D7, at D42) [%] | Difference of Y-maze effect from Sc.Aβ-vehicle animals ([1]; 1 mg/Kg from D7, between D21 and D28) | Y-maze activity after D48 until D100 ([1]; donepezil 1 mg/Kg only, D7 to D100) | Time after initiation of treatment at which cognitive function reaches its baseline level ([2]; Alzheimer's patients) [weeks] | Period during which treatment improved the patient's cognitive function ([2]; Alzheimer's patients, from initiation of treatment) [weeks] | Effect on long-term memory, passive avoidance (step-through latency and escape latency) ([3]; Example A, treatment alone D20 to D40 or D42, tested D39-40 or D41-42) | Recovery of Aβ25-35-induced cognitive impairment assessed by passive avoidance test ([3]; Example B, 1 mg/Kg started at D08 (to D17), tested D16-17) | Activity in passive avoidance test ([3]; Example B, 1 mg/kg administered D20 to D30, tested D29-30) | Fear conditioning memory assessed by STPA at D99/D100 ([3]; Example C, end of experiment, treatment until D100) | Effect on Aβ25-35-induced cognitive impairment, spontaneous alternation (Y-maze), after longer treatment [4] | Effect on Aβ25-35-induced cognitive impairment, spontaneous alternation (Y-maze), after longer treatment ([4]; listed as DNPz) | Effect on Aβ25-35-induced cognitive impairment, spontaneous alternation (Y-maze) [4] | Effect on Aβ25-35-induced cognitive impairment, spontaneous alternation (Y-maze) ([4]; listed as DNPz) | Percentage drug effect in Y-maze at D30 ([4]; Example B, 1 mg/Kg D20 until D40, tested at D30) [%] | Percentage drug effect in Y-maze at D38 ([4]; Example B, 1 mg/Kg D20 until D40, tested at D38, not statistically significant) [%] | Recovery of Aβ25-35-induced cognitive impairment assessed by Y-maze ([4]; Example B, 1 mg/Kg per os once a day started at D08 (to D17), tested D15) | Activity in Y-maze, % of optimal activity ([4]; Example B, 1 mg/kg administered D20 to D30, tested D28) [%] | Efficacy over time in Alzheimer's patients ([2]; compared with donepezil studies)
1 | COc1cc2c(cc1OC)C(=O)C(CC1CCN(Cc3ccccc3)CC1)C2 (stereo not drawn) [donepezil] | 47 | not significantly different | inactivity was sustained | 30 | 12 | partially restored long-term memory | fully recover | partially active | altered | totally lost | not sustained | partially alleviated | partial activity | 43 | 25 | fully recover | 44 | 
2 | CCN(C)C(=O)Oc1cccc([C@H](C)N(C)C)c1 [rivastigmine] |  |  |  |  |  |  |  |  |  |  |  |  |  |  |  |  |  | limited efficacy
